Data as given in ChEMBL document CHEMBL4396916, “Novel potent substituted 4-amino-2-thiopyrimidines as dual VEGFR-2 and BRAF kinase inhibitors” (Eur J Med Chem, 2019).

Experiments:
MCF7 [1] = test: Inhibition of VEGFR2 level in human MCF7 cells at 10 uM measured after 48 hrs by ELISA relative to control; format: functional; conditions: MCF7, 48 h
LOX IMVI = test: Growth inhibition of human LOXIMVI cells at 10 uM incubated for 48 hrs by sulforhodamine B assay relative to control; format: functional; conditions: read-out: GI
786-0 = test: Growth inhibition of human 786-0 cells at 10 uM incubated for 48 hrs by sulforhodamine B assay relative to control; format: functional; conditions: 786-0, 48 h, read-out: GI
Angiopoietin-1 receptor = Angiopoietin-1 receptor (Homo sapiens, UniProt Q02763); test: Inhibition of TIE2 (unknown origin)
OVCAR-4 = test: Growth inhibition of human OVCAR4 cells at 10 uM incubated for 48 hrs by sulforhodamine B assay relative to control; format: functional; conditions: OVCAR-4, 48 h, read-out: GI
NCI/ADR-RES = test: Growth inhibition of human NCI/ADR-RES cells at 10 uM incubated for 48 hrs by sulforhodamine B assay relative to control; format: functional; conditions: read-out: GI
SNB-19 = test: Growth inhibition of human SNB19 cells at 10 uM incubated for 48 hrs by sulforhodamine B assay relative to control; format: functional; conditions: SNB-19, 48 h, read-out: GI
UACC-62 = test: Growth inhibition of human UACC62 cells at 10 uM incubated for 48 hrs by sulforhodamine B assay relative to control; format: functional; conditions: UACC-62, 48 h, read-out: GI
[2] = molecular target: Platelet-derived growth factor receptor beta (Homo sapiens, UniProt P09619); test: Inhibition of PDGFR beta (unknown origin)
T47D = test: Cytotoxicity against human T47D cells expressing wild type BRAF measured after 48 hrs by sulforhodamine B assay; format: functional, cell-based
PC-3 = test: Growth inhibition of human PC3 cells at 10 uM incubated for 48 hrs by sulforhodamine B assay relative to control; format: functional; conditions: PC-3, 48 h, read-out: GI
OVCAR-8 = test: Growth inhibition of human OVCAR8 cells at 10 uM incubated for 48 hrs by sulforhodamine B assay relative to control; format: functional; conditions: OVCAR-8, 48 h, read-out: GI
BT-549 = test: Growth inhibition of human BT549 cells at 10 uM incubated for 48 hrs by sulforhodamine B assay relative to control; format: functional; conditions: BT-549, 48 h, read-out: GI
UO-31 = test: Growth inhibition of human UO31 cells at 10 uM incubated for 48 hrs by sulforhodamine B assay relative to control; format: functional; conditions: UO-31, 48 h, read-out: GI
ACHN = test: Growth inhibition of human ACHN cells at 10 uM incubated for 48 hrs by sulforhodamine B assay relative to control; format: functional; conditions: read-out: GI
RPMI-8226 = test: Growth inhibition of human RPMI8226 cells at 10 uM incubated for 48 hrs by sulforhodamine B assay relative to control; format: functional; conditions: RPMI-8226, 48 h, read-out: GI
SK-MEL-2 = test: Growth inhibition of human SK-MEL-2 cells at 10 uM incubated for 48 hrs by sulforhodamine B assay relative to control; format: functional; conditions: SK-MEL-2, 48 h, read-out: GI
[3] = molecular target: Fibroblast growth factor receptor 1 (Homo sapiens, UniProt P11362); test: Inhibition of FGFR1 (unknown origin)
MOLT-4 = test: Growth inhibition of human MOLT4 cells at 10 uM incubated for 48 hrs by sulforhodamine B assay relative to control; format: functional; conditions: MOLT-4, 48 h, read-out: GI
[4] = molecular target: Serine/threonine-protein kinase B-raf (Homo sapiens, UniProt P15056); test: Inhibition of human wild type BRAF by Kinase-Glo luminescence assay
DU-145 = test: Growth inhibition of human DU145 cells at 10 uM incubated for 48 hrs by sulforhodamine B assay relative to control; format: functional; conditions: DU-145, 48 h, read-out: GI
MCF7 [5] = test: Cytotoxicity against human MCF7 cells expressing VEGFR2 and wild type BRAF measured after 48 hrs by sulforhodamine B assay; format: functional, cell-based; conditions: MCF7, 48 h
SN12C = test: Growth inhibition of human SN12C cells at 10 uM incubated for 48 hrs by sulforhodamine B assay relative to control; format: functional; conditions: read-out: GI
[6] = molecular target: RAF proto-oncogene serine/threonine-protein kinase (Homo sapiens, UniProt P04049); test: Inhibition of RAF1 (unknown origin)
Malme-3M = test: Growth inhibition of human MALME-3M cells at 10 uM incubated for 48 hrs by sulforhodamine B assay relative to control; format: functional; conditions: read-out: GI
U-251 = test: Growth inhibition of human U251 cells at 10 uM incubated for 48 hrs by sulforhodamine B assay relative to control; format: functional; conditions: U-251, 48 h, read-out: GI
NCI-H226 = test: Growth inhibition of human NCI-H226 cells at 10 uM incubated for 48 hrs by sulforhodamine B assay relative to control; format: functional; conditions: NCI-H226, 48 h, read-out: GI
OVCAR-3 = test: Growth inhibition of human OVCAR3 cells at 10 uM incubated for 48 hrs by sulforhodamine B assay relative to control; format: functional; conditions: OVCAR-3, 48 h, read-out: GI
SK-MEL-28 = test: Growth inhibition of human SK-MEL-28 cells at 10 uM incubated for 48 hrs by sulforhodamine B assay relative to control; format: functional; conditions: SK-MEL-28, 48 h, read-out: GI
SR = test: Growth inhibition of human SR cells at 10 uM incubated for 48 hrs by sulforhodamine B assay relative to control; format: functional; conditions: read-out: GI
MDA-MB-231 = test: Growth inhibition of human MDA-MB-231 cells at 10 uM incubated for 48 hrs by sulforhodamine B assay relative to control; format: functional; conditions: MDA-MB-231, 48 h, read-out: GI
HOP-62 = test: Growth inhibition of human HOP62 cells at 10 uM incubated for 48 hrs by sulforhodamine B assay relative to control; format: functional; conditions: HOP-62, 48 h, read-out: GI
MDA-MB-468 = test: Growth inhibition of human MDA-MB-468 cells at 10 uM incubated for 48 hrs by sulforhodamine B assay relative to control; format: functional; conditions: MDA-MB-468, 48 h, read-out: GI
A498 = test: Growth inhibition of human A498 cells at 10 uM incubated for 48 hrs by sulforhodamine B assay relative to control; format: functional; conditions: A498, 48 h, read-out: GI
CAKI-1 = test: Growth inhibition of human Caki1 cells at 10 uM incubated for 48 hrs by sulforhodamine B assay relative to control; format: functional; conditions: CAKI-1, 48 h, read-out: GI
[7] = molecular target: Mast/stem cell growth factor receptor Kit (Homo sapiens, UniProt P10721); test: Inhibition of c-kit (unknown origin)
MCF7 [8] = test: Growth inhibition of human MCF7 cells at 10 uM incubated for 48 hrs by sulforhodamine B assay relative to control; format: functional; conditions: MCF7, 48 h, read-out: GI
HCT-116 = test: Growth inhibition of human HCT116 cells at 10 uM incubated for 48 hrs by sulforhodamine B assay relative to control; format: functional; conditions: HCT-116, 48 h, read-out: GI
CCRF-CEM = test: Growth inhibition of human CCRF-CEM cells at 10 uM incubated for 48 hrs by sulforhodamine B assay relative to control; format: functional; conditions: read-out: GI

Sequence of Platelet-derived growth factor receptor beta (P09619 whole entry): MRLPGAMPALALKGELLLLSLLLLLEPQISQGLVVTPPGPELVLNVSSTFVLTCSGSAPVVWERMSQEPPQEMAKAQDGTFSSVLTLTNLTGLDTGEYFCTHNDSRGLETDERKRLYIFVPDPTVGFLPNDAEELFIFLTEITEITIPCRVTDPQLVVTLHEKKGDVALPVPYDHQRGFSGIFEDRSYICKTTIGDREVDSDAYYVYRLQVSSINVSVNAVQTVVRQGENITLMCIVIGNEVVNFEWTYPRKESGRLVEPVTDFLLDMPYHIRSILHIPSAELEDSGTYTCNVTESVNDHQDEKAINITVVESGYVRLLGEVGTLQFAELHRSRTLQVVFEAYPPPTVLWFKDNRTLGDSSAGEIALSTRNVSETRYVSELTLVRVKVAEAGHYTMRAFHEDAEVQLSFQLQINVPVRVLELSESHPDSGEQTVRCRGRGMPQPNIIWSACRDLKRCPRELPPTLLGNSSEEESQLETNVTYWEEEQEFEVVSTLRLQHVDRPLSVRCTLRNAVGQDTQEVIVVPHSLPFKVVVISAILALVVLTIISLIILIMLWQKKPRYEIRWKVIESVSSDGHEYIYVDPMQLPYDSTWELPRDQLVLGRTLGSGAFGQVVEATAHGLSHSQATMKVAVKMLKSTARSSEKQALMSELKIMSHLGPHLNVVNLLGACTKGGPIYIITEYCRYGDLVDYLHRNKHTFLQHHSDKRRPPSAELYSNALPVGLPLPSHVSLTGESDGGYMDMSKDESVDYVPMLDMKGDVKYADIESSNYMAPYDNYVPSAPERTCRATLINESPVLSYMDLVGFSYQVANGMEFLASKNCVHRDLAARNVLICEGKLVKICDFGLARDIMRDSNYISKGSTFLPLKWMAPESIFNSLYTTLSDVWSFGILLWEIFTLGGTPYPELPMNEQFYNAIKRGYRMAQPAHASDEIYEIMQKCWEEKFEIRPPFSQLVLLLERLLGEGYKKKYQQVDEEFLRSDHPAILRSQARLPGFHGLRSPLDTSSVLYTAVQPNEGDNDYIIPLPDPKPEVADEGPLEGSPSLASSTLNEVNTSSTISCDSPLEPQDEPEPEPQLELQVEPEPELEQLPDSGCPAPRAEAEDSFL
Sequence of Fibroblast growth factor receptor 1 (P11362 whole entry): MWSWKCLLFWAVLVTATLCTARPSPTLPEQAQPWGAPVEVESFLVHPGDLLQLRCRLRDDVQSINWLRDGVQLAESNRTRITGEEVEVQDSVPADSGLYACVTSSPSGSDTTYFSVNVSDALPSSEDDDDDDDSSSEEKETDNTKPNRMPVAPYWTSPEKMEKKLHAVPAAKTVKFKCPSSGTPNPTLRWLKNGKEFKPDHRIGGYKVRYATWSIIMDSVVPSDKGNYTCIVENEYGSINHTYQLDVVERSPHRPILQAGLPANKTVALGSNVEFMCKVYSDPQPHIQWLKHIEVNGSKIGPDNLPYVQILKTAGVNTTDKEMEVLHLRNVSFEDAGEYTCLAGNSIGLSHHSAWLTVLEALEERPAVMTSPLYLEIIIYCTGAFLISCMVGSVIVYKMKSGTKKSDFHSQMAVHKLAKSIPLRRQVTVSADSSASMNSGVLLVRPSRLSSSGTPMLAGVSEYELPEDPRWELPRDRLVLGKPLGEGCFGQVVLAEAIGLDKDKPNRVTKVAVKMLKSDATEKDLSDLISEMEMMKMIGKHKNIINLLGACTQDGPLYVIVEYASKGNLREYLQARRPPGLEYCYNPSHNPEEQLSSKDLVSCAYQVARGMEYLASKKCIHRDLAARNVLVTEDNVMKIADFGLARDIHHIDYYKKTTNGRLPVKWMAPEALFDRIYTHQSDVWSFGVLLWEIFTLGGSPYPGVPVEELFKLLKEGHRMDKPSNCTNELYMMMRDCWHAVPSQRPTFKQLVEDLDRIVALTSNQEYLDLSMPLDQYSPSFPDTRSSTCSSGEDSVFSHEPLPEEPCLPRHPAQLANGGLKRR
Sequence of Serine/threonine-protein kinase B-raf (P15056 whole entry): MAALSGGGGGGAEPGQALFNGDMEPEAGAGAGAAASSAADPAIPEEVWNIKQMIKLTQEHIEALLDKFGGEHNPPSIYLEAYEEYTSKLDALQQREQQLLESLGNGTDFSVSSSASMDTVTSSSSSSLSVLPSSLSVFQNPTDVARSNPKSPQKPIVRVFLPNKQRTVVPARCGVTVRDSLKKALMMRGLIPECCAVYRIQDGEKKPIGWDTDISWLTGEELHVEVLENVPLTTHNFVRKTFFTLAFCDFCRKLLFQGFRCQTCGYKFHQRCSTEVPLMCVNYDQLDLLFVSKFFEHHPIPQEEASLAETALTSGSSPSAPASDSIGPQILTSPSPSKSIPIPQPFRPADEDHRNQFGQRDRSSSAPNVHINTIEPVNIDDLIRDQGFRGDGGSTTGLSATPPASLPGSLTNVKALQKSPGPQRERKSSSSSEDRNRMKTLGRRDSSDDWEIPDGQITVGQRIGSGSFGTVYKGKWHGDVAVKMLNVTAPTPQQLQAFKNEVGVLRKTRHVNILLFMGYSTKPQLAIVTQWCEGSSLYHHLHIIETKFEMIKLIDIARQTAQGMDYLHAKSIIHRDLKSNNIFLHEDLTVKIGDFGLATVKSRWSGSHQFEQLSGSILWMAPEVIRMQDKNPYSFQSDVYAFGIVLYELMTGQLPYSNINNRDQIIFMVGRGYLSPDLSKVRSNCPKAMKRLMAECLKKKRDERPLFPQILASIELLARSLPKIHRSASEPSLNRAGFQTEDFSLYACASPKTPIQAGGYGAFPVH
Sequence of Angiopoietin-1 receptor (Q02763 whole entry): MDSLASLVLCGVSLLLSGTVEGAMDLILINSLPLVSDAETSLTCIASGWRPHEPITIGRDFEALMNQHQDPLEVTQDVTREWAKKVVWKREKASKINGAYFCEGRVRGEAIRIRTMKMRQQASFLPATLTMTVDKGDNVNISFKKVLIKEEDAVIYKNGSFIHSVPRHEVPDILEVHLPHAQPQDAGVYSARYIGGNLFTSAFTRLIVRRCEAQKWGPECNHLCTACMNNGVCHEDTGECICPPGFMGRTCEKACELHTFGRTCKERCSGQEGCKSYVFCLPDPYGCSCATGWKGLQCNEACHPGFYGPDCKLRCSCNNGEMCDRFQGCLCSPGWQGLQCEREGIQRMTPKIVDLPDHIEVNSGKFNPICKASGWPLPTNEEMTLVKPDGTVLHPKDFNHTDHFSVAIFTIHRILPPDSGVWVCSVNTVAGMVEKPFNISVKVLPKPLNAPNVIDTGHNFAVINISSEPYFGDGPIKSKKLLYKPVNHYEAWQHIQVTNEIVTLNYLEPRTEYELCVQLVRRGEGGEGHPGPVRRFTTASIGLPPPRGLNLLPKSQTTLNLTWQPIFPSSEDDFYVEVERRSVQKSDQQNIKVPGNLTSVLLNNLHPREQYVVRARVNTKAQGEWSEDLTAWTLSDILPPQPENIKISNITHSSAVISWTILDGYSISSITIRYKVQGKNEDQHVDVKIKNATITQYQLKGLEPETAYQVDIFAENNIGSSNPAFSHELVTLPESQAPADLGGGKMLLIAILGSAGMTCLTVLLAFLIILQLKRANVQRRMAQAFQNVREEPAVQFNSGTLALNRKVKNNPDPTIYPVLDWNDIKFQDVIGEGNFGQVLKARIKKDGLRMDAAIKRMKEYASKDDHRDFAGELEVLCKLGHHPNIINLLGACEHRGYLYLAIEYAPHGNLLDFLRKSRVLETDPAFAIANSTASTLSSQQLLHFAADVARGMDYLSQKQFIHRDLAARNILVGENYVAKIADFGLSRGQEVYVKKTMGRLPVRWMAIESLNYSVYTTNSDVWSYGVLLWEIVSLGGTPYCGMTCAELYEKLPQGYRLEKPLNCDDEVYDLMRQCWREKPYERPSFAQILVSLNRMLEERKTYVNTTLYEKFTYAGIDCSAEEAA
Sequence of Mast/stem cell growth factor receptor Kit (P10721 whole entry): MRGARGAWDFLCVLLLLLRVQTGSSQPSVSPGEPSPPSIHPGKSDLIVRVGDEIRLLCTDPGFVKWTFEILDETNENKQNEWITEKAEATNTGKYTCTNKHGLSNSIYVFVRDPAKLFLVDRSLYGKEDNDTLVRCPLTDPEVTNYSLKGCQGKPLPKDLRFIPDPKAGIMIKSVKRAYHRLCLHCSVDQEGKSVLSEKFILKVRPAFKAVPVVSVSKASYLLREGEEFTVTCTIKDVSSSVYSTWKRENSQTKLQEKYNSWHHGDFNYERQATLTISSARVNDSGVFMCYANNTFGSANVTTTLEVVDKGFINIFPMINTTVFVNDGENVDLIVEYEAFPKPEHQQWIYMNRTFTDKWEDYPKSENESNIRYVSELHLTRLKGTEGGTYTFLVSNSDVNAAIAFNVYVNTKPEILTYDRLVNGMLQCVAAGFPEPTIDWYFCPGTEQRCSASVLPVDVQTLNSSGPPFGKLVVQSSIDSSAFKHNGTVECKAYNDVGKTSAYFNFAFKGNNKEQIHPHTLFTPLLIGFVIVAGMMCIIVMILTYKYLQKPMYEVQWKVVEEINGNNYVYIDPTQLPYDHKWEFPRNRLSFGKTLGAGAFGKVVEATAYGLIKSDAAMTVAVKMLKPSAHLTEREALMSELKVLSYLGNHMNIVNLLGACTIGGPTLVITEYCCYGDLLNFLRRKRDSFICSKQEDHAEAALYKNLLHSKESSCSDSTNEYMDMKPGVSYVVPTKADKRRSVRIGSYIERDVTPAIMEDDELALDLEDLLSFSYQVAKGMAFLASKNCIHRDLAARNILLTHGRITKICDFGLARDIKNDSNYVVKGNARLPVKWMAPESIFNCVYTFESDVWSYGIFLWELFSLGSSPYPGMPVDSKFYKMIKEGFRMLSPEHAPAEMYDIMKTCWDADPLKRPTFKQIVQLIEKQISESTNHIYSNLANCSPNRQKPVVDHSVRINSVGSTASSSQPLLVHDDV

SMILES | inhibition at 10 µM (MCF7 [1]) [%] | inhibition of growth at 10 µM (LOX IMVI) [%] | inhibition of growth at 10 µM (786-0) [%] | IC50 (Angiopoietin-1 receptor) [µM] | inhibition of growth at 10 µM (OVCAR-4) [%] | inhibition of growth at 10 µM (NCI/ADR-RES) [%] | inhibition of growth at 10 µM (SNB-19) [%] | inhibition of growth at 10 µM (UACC-62) [%] | IC50 [2] [µM] | IC50 (T47D) [µM] | inhibition of growth at 10 µM (PC-3) [%] | inhibition of growth at 10 µM (OVCAR-8) [%] | inhibition of growth at 10 µM (BT-549) [%] | inhibition of growth at 10 µM (UO-31) [%] | inhibition of growth at 10 µM (ACHN) [%] | inhibition of growth at 10 µM (RPMI-8226) [%] | inhibition of growth at 10 µM (SK-MEL-2) [%] | IC50 [3] [µM] | inhibition of growth at 10 µM (MOLT-4) [%] | IC50 [4] [µM] | also measured
CCOC(=O)c1ccc(Nc2ccnc(SCC(=O)c3ccc(C#N)cc3)n2)cc1 | 84 | 20 | 22 | 1.39 | 35 | 58 | 10 | 61 | 0.39 | 2.18 | 60 | 77 | 50 | 52 | 20 | 80 | 29 | 0.28 | 84 | 0.15 | inhibition of growth at 10 µM (DU-145): 21%; IC50 (MCF7 [5]): 13 µM; inhibition of growth at 10 µM (SN12C): 26%; IC50 [6]: 0.41 µM; inhibition of growth at 10 µM (Malme-3M): 19%; inhibition of growth at 10 µM (U-251): 15%; inhibition of growth at 10 µM (NCI-H226): 38%; inhibition of growth at 10 µM (OVCAR-3): 21%; inhibition of growth at 10 µM (SK-MEL-28): 19%; inhibition of growth at 10 µM (SR): 46%; inhibition of growth at 10 µM (MDA-MB-231): 19%; inhibition of growth at 10 µM (HOP-62): 37%; inhibition of growth at 10 µM (MDA-MB-468): 52%; inhibition of growth at 10 µM (A498): 50%; inhibition of growth at 10 µM (CAKI-1): 43%; IC50 [7]: 5.16 µM; inhibition of growth at 10 µM (MCF7 [8]): 33%; inhibition of growth at 10 µM (HCT-116): 28%; inhibition of growth at 10 µM (CCRF-CEM): 82%
O=C(CSc1nccc(Nc2ccc(N3CCOCC3)cc2)n1)c1ccc(F)cc1 | 33 | 15 | 13 | 0.48 | 57 | 26 | 37 | 28 | 0.15 | 14.3 | 27 | 62 | 31 | 27 | 24 | 21 | 10 | 0.13 | 25 | 0.11 | inhibition of growth at 10 µM (DU-145): 16%; IC50 (MCF7 [5]): 26.9 µM; inhibition of growth at 10 µM (SN12C): 20%; IC50 [6]: 0.13 µM; inhibition of growth at 10 µM (Malme-3M): 29%; inhibition of growth at 10 µM (U-251): 16%; inhibition of growth at 10 µM (NCI-H226): 45%; inhibition of growth at 10 µM (OVCAR-3): 18%; inhibition of growth at 10 µM (SK-MEL-28): 19%; inhibition of growth at 10 µM (SR): 18%; inhibition of growth at 10 µM (MDA-MB-231): 22%; inhibition of growth at 10 µM (HOP-62): 69%; inhibition of growth at 10 µM (MDA-MB-468): 38%; inhibition of growth at 10 µM (A498): 36%; inhibition of growth at 10 µM (CAKI-1): 41%; IC50 [7]: 0.25 µM; inhibition of growth at 10 µM (MCF7 [8]): 31%; inhibition of growth at 10 µM (HCT-116): 32%; inhibition of growth at 10 µM (CCRF-CEM): 19%
